Measurements published in patent US20070249844A1, “Pyrazole derivatives and process for the production thereof” (Ihara Chemical Industry Co., Ltd., priority 2002, published 2007).

Row | melting point | SMILES
1 | 39 to 40 °C | Cn1nc(C(F)(F)F)c(CSC2=NOC(C)(C)C2)c1OC(F)F
2 | 93 to 95 °C | Cn1nc(C(F)(F)F)c(CS(=O)(=O)C2=NOC(C)(C)C2)c1OCC(F)(F)F
3 | 133 to 134 °C | CCCn1nc(C(F)(F)F)c(C)c1O
4 | 98 to 100 °C | CCn1nc(C(F)(F)F)c(CS(=O)(=O)C2=NOC(C)(C)C2)c1OC(F)F
5 | 91 to 92 °C | CC1(C)CC(S(=O)(=O)Cc2c(C(F)(F)F)nn(C(C)(C)C)c2OCC(F)(F)F)=NO1
6 | 96 to 98 °C | Cn1nc(C(F)(F)F)c(CS(=O)(=O)C2=NOC(C)(C3CC3)C2)c1OC(F)F (stereo not drawn)
7 | 115 to 117 °C | Cn1nc(C(F)(F)F)c(CS(=O)(=O)C2=NOCC2)c1OC(F)F
8 | 85 to 86 °C | CC(C)C1CC(S(=O)(=O)Cc2c(C(F)(F)F)nn(C)c2OC(F)F)=NO1 (stereo not drawn)
9 | 150 to 152 °C | CCn1nc(C(F)(F)F)c(C)c1O
10 | 77 to 78 °C | CCC1(C)CC(S(=O)(=O)Cc2c(C(F)(F)F)nn(C)c2OC(F)F)=NO1 (stereo not drawn)
11 | 88 to 89 °C | CC(C)n1nc(C(F)(F)F)c(CS(=O)(=O)C2=NOC(C)(C)C2)c1OCC(F)F
12 | 84 to 86 °C | CCn1nc(C(F)(F)F)c(CS(=O)(=O)C2=NOC(C)(C)C2)c1OCC(F)(F)F
13 | 106 to 107 °C | CC1CC(S(=O)(=O)Cc2c(C(F)(F)F)nn(C)c2OC(F)F)=NO1 (stereo not drawn)
14 | 109 to 110 °C | CC(C)n1nc(C(F)(F)F)c(CS(=O)(=O)C2=NOC(C)(C)C2)c1OCC(F)(F)F
15 | 139 to 141 °C | Br.CCn1nc(C(F)(F)F)c(CSC(=N)N)c1OC(F)F
16 | 89 to 91 °C | Cn1nc(C(F)(F)F)c(CS(=O)(=O)C2=NOC(C)(C)C2)c1OCC(F)F
17 | 97 to 98 °C | Cn1nc(C(F)(F)F)c(CS(=O)(=O)C2=NOC3CCCCC23)c1OC(F)F (stereo not drawn)
18 | 49 to 51 °C | CCCn1nc(C(F)(F)F)c(CS(=O)(=O)C2=NOC(C)(C)C2)c1OCC(F)(F)F
